Experimental data from ChEMBL document CHEMBL5506020 (J Med Chem, 2024).
The source made the active and inactive calls. The rule behind the calls is not given here.

Key:
MV4-11 [1] = assay: Downregulation of BRD4 protein level in human MV4-11 cells at 10 nM incubated for 6 hrs by proteomic analysis; type: functional, cell-based
KG-1 = assay: Antiproliferative activity against human KG-1 cells upto 10 uM; type: functional, cell-based
MV4-11 [2] = assay: Downregulation of CDK5 protein in human MV4-11 cells at 10 nM incubated for 6 hrs by proteomic analysis; type: functional, cell-based
Mus musculus [3] = assay: In vivo induction of CBP degradation in NOD/SCID mouse tumor xenografted with human MV4-11 cells at 5 mg/kg, ip administered every other day for 2 weeks by immunoblotting analysis; type: functional, organism-based
[4] = Toxicity in NOD/SCID mouse xenografted with human MV4-11 cells assessed as body weight loss at 5 mg/kg, ip administered every other day for 2 weeks; type: organism-based; settings: in vivo, 336 h
MV4-11 [5] = assay: Downregulation of KRAS protein in human MV4-11 cells at 10 nM incubated for 6 hrs by proteomic analysis; type: functional, cell-based
MV4-11 [6] = assay: Downregulation of IKZF1 mRNA level in human MV4-11 cells at 100 nM incubated for 6 hrs by qRT-PCR analysis; type: functional, cell-based
MV4-11 [7] = assay: Downregulation of BRD3 protein level in human MV4-11 cells at 10 nM incubated for 6 hrs by proteomic analysis; type: functional, cell-based
[8] = Antiproliferative activity against human MOLM16 cells incubated for 72 hrs by Cell-Titer Glo assay; settings: MOLM16, 72 h
THP-1 = assay: Antiproliferative activity against human THP-1 cells upto 10 uM; type: functional, cell-based
MV4-11 [9] = assay: Downregulation of c-Myc protein level in human MV4-11 cells at 50 nM incubated for 24 hrs by Western blotting analysis; type: functional, cell-based
MV4-11 [10] = assay: Downregulation of BRD2 protein level in human MV4-11 cells at 10 nM incubated for 6 hrs by proteomic analysis; type: functional, cell-based
MOLM-16 = assay: Downregulation of c-Myc protein level in human MOLM16 cells at 50 nM incubated for 24 hrs by Western blotting analysis; type: functional, cell-based
EOL1 = assay: Antiproliferative activity against human EOL1 cells upto 10 uM; type: functional, cell-based
MV4-11 [11] = assay: Downregulation of p300 protein level in human MV4-11 cells assessed as fold decrease at 10 nM incubated for 6 hrs by proteomic blotting analysis; type: functional, cell-based
MV4-11 [12] = assay: Downregulation of ZFP91 protein level in human MV4-11 cells at 10 nM incubated for 6 hrs by proteomic analysis; type: functional, cell-based
[13] = Toxicity in NOD/SCID mouse xenografted with human MV4-11 cells assessed as lymphocyte infiltration in liver at 5 mg/kg, ip administered every other day for 2 weeks by H and E staining based assay; type: organism-based; settings: in vivo, 336 h
MV4-11 [14] = assay: Downregulation of GSPT1 protein level in human MV4-11 cells at 10 nM incubated for 6 hrs by proteomic analysis; type: functional, cell-based
MV4-11 [15] = assay: Downregulation of TRIM24 protein level in human MV4-11 cells at 10 nM incubated for 6 hrs by proteomic analysis; type: functional, cell-based
MOLM-13 [16] = assay: Antiproliferative activity against human MOLM-13 cells incubated for 72 hrs by Cell-Titer Glo assay; settings: MOLM-13, 72 h
MV4-11 [17] = assay: Downregulation of CBP mRNA level in human MV4-11 cells at 100 nM incubated for 6 hrs by qRT-PCR analysis; type: functional, cell-based
MV4-11 [18] = assay: Downregulation of SMARCA4 protein level in human MV4-11 cells at 10 nM incubated for 6 hrs by proteomic analysis; type: functional, cell-based
MV4-11 [19] = assay: Downregulation of IRF4 protein in human MV4-11 cells at 10 nM incubated for 6 hrs by proteomic analysis; type: functional, cell-based
MV4-11 [20] = assay: Downregulation of STAT2 protein in human MV4-11 cells at 10 nM incubated for 6 hrs by proteomic analysis; type: functional, cell-based
MOLM-13 [21] = assay: Downregulation of c-Myc protein level in human MOLM-13 cells at 50 nM incubated for 24 hrs by Western blotting analysis; type: functional, cell-based
MV4-11 [22] = assay: Downregulation of IKZF1 level in human MV4-11 cells at 10 uM incubated for 6 hrs by Western blotting analysis; type: functional, cell-based
MV4-11 [23] = assay: Antiproliferative activity against human MV4-11 cells incubated for 120 hrs by Cell-Titer Glo assay; settings: MV4-11, 120 h
[24] = Toxicity in NOD/SCID mouse xenografted with human MV4-11 cells assessed as effect on kidney at 5 mg/kg, ip administered every other day for 2 weeks by H and E staining based assay; type: organism-based; settings: in vivo, 336 h
MV4-11 [25] = assay: Downregulation of p300 mRNA level in human MV4-11 cells at 100 nM incubated for 6 hrs by qRT-PCR analysis; type: functional, cell-based
[26] = Toxicity in NOD/SCID mouse xenografted with human MV4-11 cells assessed as effect on lung at 5 mg/kg, ip administered every other day for 2 weeks by H and E staining based assay; type: organism-based; settings: in vivo, 336 h
MV4-11 [27] = assay: Antitumor activity against human MV4-11 cells xenografted in NOD-SCID mouse assessed as tumor growth inhibition at 5 mg/kg, ip administered every other day for 2 weeks; type: functional; settings: MV4-11, 336 h, read-out: TGI
MV4-11 [28] = assay: Downregulation of TP53RK protein in human MV4-11 cells at 10 nM incubated for 6 hrs by proteomic analysis; type: functional, cell-based
[29] = Toxicity in NOD/SCID mouse xenografted with human MV4-11 cells assessed as effect on heart at 5 mg/kg, ip administered every other day for 2 weeks by H and E staining based assay; type: organism-based; settings: in vivo, 336 h
MV4-11 [30] = assay: Downregulation of STAT1 protein in human MV4-11 cells at 10 nM incubated for 6 hrs by proteomic analysis; type: functional, cell-based
[31] = Toxicity in NOD/SCID mouse xenografted with human MV4-11 cells assessed as aggregation of multinucleated giant cells in spleen at 5 mg/kg, ip administered every other day for 2 weeks by H and E staining based assay; type: organism-based; settings: in vivo, 336 h
MV4-11 [32] = assay: Antitumor activity against human MV4-11 cells xenografted in NOD-SCID mouse assessed as tumor growth inhibition at 2 mg/kg, ip administered every other day for 2 weeks; type: functional; settings: MV4-11, 336 h, read-out: TGI
[33] = Toxicity in NOD/SCID mouse xenografted with human MV4-11 cells assessed as effect on heart at 2 to 5 mg/kg, ip administered every other day for 2 weeks by H and E staining based assay; type: organism-based; settings: in vivo, 336 h, dose 2-5 mg/kg
Mus musculus [34] = assay: In vivo induction of p300 degradation in NOD/SCID mouse tumor xenografted with human MV4-11 cells at 2 to 5 mg/kg, ip administered every other day for 2 weeks by immunoblotting analysis; type: functional, organism-based; settings: dose 2-5 mg/kg
Mus musculus [35] = assay: In vivo induction of CBP degradation in NOD/SCID mouse tumor xenografted with human MV4-11 cells at 2 to 5 mg/kg, ip administered every other day for 2 weeks by immunoblotting analysis; type: functional, organism-based; settings: dose 2-5 mg/kg
[36] = Toxicity in NOD/SCID mouse xenografted with human MV4-11 cells assessed as effect on kidney at 2 to 5 mg/kg, ip administered every other day for 2 weeks by H and E staining based assay; type: organism-based; settings: in vivo, 336 h, dose 2-5 mg/kg
[37] = Toxicity in NOD/SCID mouse xenografted with human MV4-11 cells assessed as aggregation of multinucleated giant cells in spleen at 2 to 5 mg/kg, ip administered every other day for 2 weeks by H and E staining based assay; type: organism-based; settings: in vivo, 336 h, dose 2-5 mg/kg
[38] = Toxicity in NOD/SCID mouse xenografted with human MV4-11 cells assessed as body weight loss at 2 to 5 mg/kg, ip administered every other day for 2 weeks; type: organism-based; settings: in vivo, 336 h, dose 2-5 mg/kg
[39] = Toxicity in NOD/SCID mouse xenografted with human MV4-11 cells assessed as effect on lung at 2 to 5 mg/kg, ip administered every other day for 2 weeks by H and E staining based assay; type: organism-based; settings: in vivo, 336 h, dose 2-5 mg/kg
[40] = Toxicity in NOD/SCID mouse xenografted with human MV4-11 cells assessed as lymphocyte infiltration in liver at 2 to 5 mg/kg, ip administered every other day for 2 weeks by H and E staining based assay; type: organism-based; settings: in vivo, 336 h, dose 2-5 mg/kg

| IC50 (MOLM-13 [16]) [nM] | SMILES | Activity (MV4-11 [1]) | Activity (KG-1) | Activity (MV4-11 [2]) | Activity (MV4-11 [5]) | Activity (MV4-11 [6]) | Activity (MV4-11 [7]) | IC50 [8] [nM] | Activity (THP-1) | Activity (MV4-11 [9]) | Activity (MV4-11 [10]) | Activity (MOLM-16) | Activity (EOL1) | Activity (MV4-11 [12]) | Activity (MV4-11 [14]) | Activity (MV4-11 [15]) | Activity (MV4-11 [17]) | Activity (MV4-11 [18]) | Activity (MV4-11 [19]) | Activity (MV4-11 [20]) | other results |
| --- | --- | --- | --- | --- | --- | --- | --- | --- | --- | --- | --- | --- | --- | --- | --- | --- | --- | --- | --- | --- | --- |
| 47 | Cc1noc(C)c1-c1ccc2c(c1)nc([C@@H]1CCCC(=O)N1c1ccc(F)c(F)c1)n2C1CCN(CC(=O)Nc2cnc(-c3ccc(CNc4cccc5c4C(=O)N(C4CCC(=O)NC4=O)C5=O)cc3)nc2)CC1 (stereo partly specified) | inactive | inactive | Active | Active | Active | inactive | 5.5 | inactive | Active | inactive | Active | inactive | inactive | inactive | inactive | inactive | inactive | Active | Active | Activity (Mus musculus [3]): Active; Activity [4]: Non-Toxic; Activity (MV4-11 [11]): inactive; Activity [13]: Toxic; Activity (MOLM-13 [21]): Active; Activity (MV4-11 [22]): Active; IC50 (MV4-11 [23]): 0.9 nM; Activity [24]: Non-Toxic; Activity (MV4-11 [25]): inactive; Activity [26]: Non-Toxic; inhibition in vivo at 5 mg/kg (MV4-11 [27]): 93%; Activity (MV4-11 [28]): Active; Activity [29]: Non-Toxic; Activity (MV4-11 [30]): Active; Activity [31]: Toxic |
| 26.9 | Cc1noc(C)c1-c1ccc2c(c1)nc([C@@H]1CCCC(=O)N1c1ccc(F)c(F)c1)n2C1CCN(CC(=O)Nc2ccc(-c3ccc(CNc4cccc5c4C(=O)N(C4CCC(=O)NC4=O)C5=O)cc3)nc2)CC1 (stereo partly specified) | inactive | inactive | Active | Active | Active | inactive | 4.6 | inactive | Active | inactive | Active | inactive | inactive | inactive | inactive | inactive | inactive | Active | Active | inhibition in vivo at 2 mg/kg (MV4-11 [32]): 53%; Activity [33]: Non-Toxic; Activity (Mus musculus [34]): Active; Activity (Mus musculus [35]): Active; Activity [36]: Non-Toxic; Activity [37]: Toxic; Activity [38]: Non-Toxic; Activity [39]: Non-Toxic; Activity (MOLM-13 [21]): Active; Activity (MV4-11 [22]): Active; IC50 (MV4-11 [23]): 1.8 nM; Activity (MV4-11 [25]): inactive; inhibition in vivo at 5 mg/kg (MV4-11 [27]): 88%; Activity [40]: Toxic; Activity (MV4-11 [28]): Active; Activity (MV4-11 [30]): Active |
